Assay results as given in PubChem BioAssay (NCI).
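Step 1: Grow cells in 96-well plates. Step 2: Expose to compound for 48 hours at 5 concentrations. Step 3: Interpolate endpoints linearly; if unreached, use highest concentration. GI50 is the concentration that inhibits growth by half. The concentration for full growth arrest is given as TGI.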

Legend:
Assay in all cases: NCI anticancer screen, dose series, 48 h
HL-60(TB) leukemia = tested on: HL-60(TB) leukemia
SW-620 colon = tested on: SW-620 colon
LOX IMVI melanoma = tested on: LOX IMVI melanoma
SK-MEL-28 melanoma = tested on: SK-MEL-28 melanoma
CCRF-CEM leukemia = tested on: CCRF-CEM leukemia
MOLT-4 leukemia = tested on: MOLT-4 leukemia
SF-539 CNS = tested on: SF-539 CNS
HOP-62 NSCLC = tested on: HOP-62 NSCLC
NCI-H460 lung = tested on: NCI-H460 lung
PC-3 prostate = tested on: PC-3 prostate

`O=C(Nc1c(-c2nc3ccccc3[nH]2)sc(=S)n1-c1ccccc1)c1ccccc1` gave a TGI (HL-60(TB) leukemia) of over 100 µM, a TGI (SW-620 colon) of over 100 µM and a TGI (LOX IMVI melanoma) of over 100 µM. It also gave a TGI (SK-MEL-28 melanoma) of over 100 µM, a TGI (CCRF-CEM leukemia) of over 100 µM and a TGI (MOLT-4 leukemia) of over 100 µM. The TGI (SF-539 CNS) was over 100 µM and the TGI (HOP-62 NSCLC) was over 100 µM.

Molecule `O=C(CCC(=O)Nc1ccc(Cl)cc1)CC(=O)c1ccc(F)cc1` has a TGI (NCI-H460 lung) of over 100 µM, a TGI (HL-60(TB) leukemia) of over 100 µM and a TGI (SW-620 colon) of over 100 µM. The TGI (LOX IMVI melanoma) was over 100 µM, the TGI (SK-MEL-28 melanoma) was over 100 µM and the TGI (MOLT-4 leukemia) was over 100 µM. For the same molecule, the TGI (SF-539 CNS) was over 100 µM and the TGI (HOP-62 NSCLC) was over 100 µM.

Molecule `Cc1ccc(NC(=O)/C(CC(=O)c2c[n+](=O)c3ccccc3n2O)=N\NC(=O)C[n+]2ccccc2)cc1` has a TGI (NCI-H460 lung) of over 100 µM, a TGI (HL-60(TB) leukemia) of over 100 µM and a TGI (SW-620 colon) of over 100 µM. The TGI (LOX IMVI melanoma) was over 100 µM, the TGI (SK-MEL-28 melanoma) was over 100 µM and the TGI (CCRF-CEM leukemia) was over 100 µM. It also gave a TGI (MOLT-4 leukemia) of over 100 µM, a TGI (SF-539 CNS) of over 100 µM and a TGI (HOP-62 NSCLC) of over 100 µM.

With `CCN(CC)CCOc1ccc(/C=C2\CC3C4CCC5=CC(=O)CC[C@]5(C)C4CC[C@]3(C)C2=O)cc1OC` (some centres undefined) the GI50 (NCI-H460 lung) was 2.85 µM, the TGI (NCI-H460 lung) was 11.2 µM and the GI50 (SW-620 colon) was 2.98 µM. The TGI (SW-620 colon) was 13.4 µM, the GI50 (LOX IMVI melanoma) was 1.89 µM and the TGI (LOX IMVI melanoma) was 4.43 µM. The GI50 (PC-3 prostate) was 2.92 µM, the TGI (PC-3 prostate) was 13.9 µM and the GI50 (SK-MEL-28 melanoma) was 2.29 µM. For the same molecule, the TGI (SK-MEL-28 melanoma) was 5.67 µM, the GI50 (MOLT-4 leukemia) was 5.78 µM and the TGI (MOLT-4 leukemia) was over 100 µM. For the same molecule, the GI50 (SF-539 CNS) was 2.06 µM, the TGI (SF-539 CNS) was 6.13 µM and the GI50 (HOP-62 NSCLC) was 2.5 µM. The TGI (HOP-62 NSCLC) was 6.37 µM.

For `COc1ccc2c3c1C(=O)CCC3CO2` (centres undefined), the TGI (NCI-H460 lung) was over 100 µM, the TGI (HL-60(TB) leukemia) was over 100 µM and the TGI (SW-620 colon) was over 100 µM. The TGI (LOX IMVI melanoma) was over 100 µM, the TGI (SK-MEL-28 melanoma) was over 100 µM and the TGI (CCRF-CEM leukemia) was over 100 µM. It also gave a TGI (MOLT-4 leukemia) of over 100 µM, a TGI (SF-539 CNS) of over 100 µM and a TGI (HOP-62 NSCLC) of over 100 µM.

`CC(=O)OC12c3ccccc3C1CCCCCC21OCCCO1` (centres undefined) gave a TGI (NCI-H460 lung) of over 100 µM, a TGI (HL-60(TB) leukemia) of over 100 µM and a TGI (LOX IMVI melanoma) of over 100 µM. It also gave a TGI (SK-MEL-28 melanoma) of over 100 µM, a TGI (CCRF-CEM leukemia) of over 100 µM and a TGI (MOLT-4 leukemia) of over 100 µM. It also gave a TGI (SF-539 CNS) of over 100 µM and a TGI (HOP-62 NSCLC) of over 100 µM.

With `CC(=O)N1CC2Nc3ccccc3C2CC1CO` (centres undefined) the TGI (NCI-H460 lung) was over 100 µM, the TGI (HL-60(TB) leukemia) was over 100 µM and the TGI (SW-620 colon) was over 100 µM. For the same molecule, the TGI (LOX IMVI melanoma) was over 100 µM, the TGI (SK-MEL-28 melanoma) was over 100 µM and the TGI (CCRF-CEM leukemia) was over 100 µM. The TGI (MOLT-4 leukemia) was over 100 µM, the TGI (SF-539 CNS) was over 100 µM and the TGI (HOP-62 NSCLC) was over 100 µM.

For `N=C(c1ccccc1)N(O)C1CCCCC1`, the TGI (NCI-H460 lung) was over 100 µM, the TGI (HL-60(TB) leukemia) was over 100 µM and the TGI (SW-620 colon) was over 100 µM. The TGI (LOX IMVI melanoma) was over 100 µM, the TGI (SK-MEL-28 melanoma) was over 100 µM and the TGI (SF-539 CNS) was over 100 µM. The TGI (HOP-62 NSCLC) was over 100 µM.

Work on `O=c1ccccc2cccc(O)c12` yielded a TGI (NCI-H460 lung) of over 100 µM, a TGI (HL-60(TB) leukemia) of over 100 µM and a TGI (SW-620 colon) of over 100 µM. The TGI (LOX IMVI melanoma) was over 100 µM, the TGI (SK-MEL-28 melanoma) was over 100 µM and the TGI (CCRF-CEM leukemia) was over 100 µM. It also gave a TGI (MOLT-4 leukemia) of over 100 µM, a TGI (SF-539 CNS) of over 100 µM and a TGI (HOP-62 NSCLC) of over 100 µM.

`O=c1cc(Cl)nc[nH]1` showed a TGI (NCI-H460 lung) of over 100 µM, a TGI (HL-60(TB) leukemia) of over 100 µM and a TGI (SW-620 colon) of over 100 µM. For the same molecule, the TGI (LOX IMVI melanoma) was over 100 µM, the TGI (SK-MEL-28 melanoma) was over 100 µM and the TGI (CCRF-CEM leukemia) was over 100 µM. The TGI (MOLT-4 leukemia) was over 100 µM and the TGI (HOP-62 NSCLC) was over 100 µM.

Work on `O=C(OCCOCBr)c1ccccc1` yielded a TGI (NCI-H460 lung) of over 100 µM, a TGI (HL-60(TB) leukemia) of over 100 µM and a TGI (SW-620 colon) of over 100 µM. It also gave a TGI (LOX IMVI melanoma) of over 100 µM, a TGI (SK-MEL-28 melanoma) of over 100 µM and a TGI (CCRF-CEM leukemia) of over 100 µM. It also gave a TGI (MOLT-4 leukemia) of over 100 µM, a TGI (SF-539 CNS) of over 100 µM and a TGI (HOP-62 NSCLC) of over 100 µM.

With `Cc1cc(NS(=O)(=O)c2ccc(NC(=O)c3cccc4c(N)c5ccccc5nc34)cc2)no1` the TGI (NCI-H460 lung) was over 100 µM, the TGI (SW-620 colon) was 94.2 µM and the TGI (LOX IMVI melanoma) was 65.8 µM. For the same molecule, the TGI (SK-MEL-28 melanoma) was 44.2 µM, the TGI (CCRF-CEM leukemia) was 66.5 µM and the TGI (MOLT-4 leukemia) was over 100 µM. It also gave a TGI (SF-539 CNS) of 47.6 µM and a TGI (HOP-62 NSCLC) of 86.9 µM.

`COC(OC)c1cccc2c1C1(O)CCC3(CC21)OCCCCO3` (centres undefined) was tested, and the TGI (NCI-H460 lung) was over 100 µM, the TGI (HL-60(TB) leukemia) was over 100 µM and the TGI (LOX IMVI melanoma) was over 100 µM. It also gave a TGI (SK-MEL-28 melanoma) of over 100 µM, a TGI (CCRF-CEM leukemia) of over 100 µM and a TGI (MOLT-4 leukemia) of over 100 µM. It also gave a TGI (SF-539 CNS) of over 100 µM and a TGI (HOP-62 NSCLC) of over 100 µM.

Molecule `O=S1(=O)CCN(Cc2ccccn2)CC1` has a TGI (NCI-H460 lung) of over 100 µM, a TGI (SW-620 colon) of over 100 µM and a TGI (LOX IMVI melanoma) of over 100 µM. It also gave a TGI (PC-3 prostate) of over 100 µM, a TGI (SK-MEL-28 melanoma) of over 100 µM and a TGI (SF-539 CNS) of over 100 µM. It also gave a TGI (HOP-62 NSCLC) of over 100 µM.

With `CN(C)CCn1c2ccccc2c2nc3cc4ccccc4cc3nc21` the TGI (NCI-H460 lung) was 2.48 µM, the TGI (HL-60(TB) leukemia) was 11.1 µM and the TGI (SW-620 colon) was 17.4 µM. It also gave a TGI (LOX IMVI melanoma) of 15.6 µM, a TGI (SK-MEL-28 melanoma) of 21.9 µM and a TGI (CCRF-CEM leukemia) of 14.7 µM. It also gave a TGI (MOLT-4 leukemia) of 4.1 µM and a TGI (HOP-62 NSCLC) of 20.1 µM.

With `O=c1[nH]c(Br)nc2c(Br)c[nH]c12` the TGI (NCI-H460 lung) was over 100 µM, the TGI (HL-60(TB) leukemia) was over 100 µM and the TGI (SW-620 colon) was over 100 µM. For the same molecule, the TGI (LOX IMVI melanoma) was over 100 µM, the TGI (SK-MEL-28 melanoma) was over 100 µM and the TGI (CCRF-CEM leukemia) was over 100 µM. The TGI (MOLT-4 leukemia) was over 100 µM, the TGI (SF-539 CNS) was over 100 µM and the TGI (HOP-62 NSCLC) was over 100 µM.

Work on `CCC[CH2][Sn]([CH2]CCC)([O]C(=O)c1cccc(F)c1)[O]C(=O)c1cccc(F)c1` yielded a GI50 (NCI-H460 lung) of 2.08 µM, a TGI (NCI-H460 lung) of 5.38 µM and a GI50 (LOX IMVI melanoma) of 0.605 µM. For the same molecule, the TGI (LOX IMVI melanoma) was 2.99 µM, the GI50 (SK-MEL-28 melanoma) was 0.703 µM and the TGI (SK-MEL-28 melanoma) was 2.02 µM. For the same molecule, the GI50 (CCRF-CEM leukemia) was 0.239 µM, the TGI (CCRF-CEM leukemia) was 0.832 µM and the GI50 (MOLT-4 leukemia) was 0.363 µM. For the same molecule, the TGI (MOLT-4 leukemia) was 2.41 µM, the GI50 (SF-539 CNS) was 1.1 µM and the TGI (SF-539 CNS) was 2.31 µM. It also gave a GI50 (HOP-62 NSCLC) of 1.91 µM and a TGI (HOP-62 NSCLC) of 3.38 µM.
